Measurements published in patent US9562034B2, “Endoparasite control agent” (The University of Tokyo, priority 2012, dated 2017).
Like-named read-outs stand apart in the source and are kept apart here.

Legend:
[1] = tested on: Haemonchus contortus L1-stage larvae; test: In vivo activity test on Haemonchus nematode (motor ability of L1-stage larvae, 96-well plate); conditions: twenty L1-stage larvae per well, 27° C./95% RH for 4 days, DMSO 0.78% (v/v)
Protocol: In Vivo Activity Test on Haemonchus Nematode
In a 96-well plate, twenty L1-stage larvae (Haemonchus contortus) per well were maintained so that they could freely move, and solutions of compounds of the present invention dissolved at predetermined concentrations in DMSO (the final concentration of DMSO was 0.78% (v/v)) were added at 0.5 μl/well each. The plate was kept under the conditions of 27° C./95% RH for 4 days. The motor ability of the larvae was examined and the concentration required for 50% inhibition of the motor ability (EC50) was determined. Based on the EC50 value, the activity against the Haemonchus nematode was graded according to the criterion shown below.
• A: The EC50 value is lower than 0.5 ppm. • B: The EC50 value is 0.5 ppm or higher but lower than 5 ppm. • C: The EC50 value is 5 ppm or higher.

[2] = molecular target: T1, Ascaris suum succinate-ubiquinone reductase (mitochondrial complex II) (Ascaris suum, UniProt O44074+P92506+P92507); test: In vitro inhibitory activity on Ascaris suum succinate-ubiquinone reductase (mitochondrial complex II); type: biochemical
T1 construct: from tissue; host or cells: mitochondria from adult Ascaris suum muscle
T1 sequence (O44074 22-282): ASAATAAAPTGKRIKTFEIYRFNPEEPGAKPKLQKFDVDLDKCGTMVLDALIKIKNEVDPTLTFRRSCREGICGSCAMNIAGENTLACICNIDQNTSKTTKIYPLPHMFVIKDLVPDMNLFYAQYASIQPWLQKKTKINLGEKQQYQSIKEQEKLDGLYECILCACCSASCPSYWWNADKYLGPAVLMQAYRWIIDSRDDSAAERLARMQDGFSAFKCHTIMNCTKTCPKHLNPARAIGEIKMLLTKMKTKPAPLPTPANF
T1 sequence (P92506 32-188): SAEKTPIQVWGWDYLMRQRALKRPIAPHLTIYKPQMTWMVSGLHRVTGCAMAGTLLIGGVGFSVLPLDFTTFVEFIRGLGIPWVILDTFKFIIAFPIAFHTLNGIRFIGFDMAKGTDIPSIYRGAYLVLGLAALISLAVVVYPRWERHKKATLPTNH
T1 sequence (P92507 26-156): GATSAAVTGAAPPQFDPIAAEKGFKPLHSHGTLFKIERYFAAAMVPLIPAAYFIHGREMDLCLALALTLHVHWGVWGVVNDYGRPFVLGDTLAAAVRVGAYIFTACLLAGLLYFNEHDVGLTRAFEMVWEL
T1 sequence (Q33862 19-645 partner): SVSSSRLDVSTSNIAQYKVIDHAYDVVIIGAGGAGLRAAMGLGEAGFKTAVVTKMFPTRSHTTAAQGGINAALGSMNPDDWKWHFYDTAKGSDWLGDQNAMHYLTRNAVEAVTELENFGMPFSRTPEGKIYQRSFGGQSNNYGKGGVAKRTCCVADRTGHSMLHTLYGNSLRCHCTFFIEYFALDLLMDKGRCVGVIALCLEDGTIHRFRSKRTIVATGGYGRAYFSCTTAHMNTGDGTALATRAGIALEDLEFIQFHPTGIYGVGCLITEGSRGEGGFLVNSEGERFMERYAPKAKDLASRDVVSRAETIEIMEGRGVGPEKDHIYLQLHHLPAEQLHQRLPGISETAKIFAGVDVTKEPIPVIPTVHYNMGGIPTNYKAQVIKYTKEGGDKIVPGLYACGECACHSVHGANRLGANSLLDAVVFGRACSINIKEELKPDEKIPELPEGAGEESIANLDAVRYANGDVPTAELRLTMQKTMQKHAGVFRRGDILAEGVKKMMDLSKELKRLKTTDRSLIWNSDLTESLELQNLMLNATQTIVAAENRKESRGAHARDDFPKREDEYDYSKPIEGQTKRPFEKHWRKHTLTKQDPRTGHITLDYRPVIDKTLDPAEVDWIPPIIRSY
Protocol: In Vitro Measurement of Inhibitory Activity on Ascaris suum Succinate-Ubiquinone Reductase (Mitochondrial Complex II)
To a solution containing 50 mM potassium phosphate (pH 7.4) and 0.1% (w/v) sucrose monolaurate, an electron acceptor ubiquinone-2 (UQ2) was added at a final concentration of 60 μM, and the mixture was allowed to stand at 25° C. for 20 minutes. To this, potassium cyanide (final concentration: 2 mM) and mitochondria prepared from adult Ascaris suum muscle were added, and thorough mixing was done. To aliquots of the mixture, an inhibitor to be tested was added at various concentrations, and the mixtures were allowed to stand at 25° C. for 3 minutes. The enzymatic reaction was initiated by addition of potassium succinate (final concentration: 10 mM).

[3] = mitochondria from adult Ascaris suum muscle, UQ2 60 μM, potassium succinate 10 mM, 25° C., absorbance at 278 nm, read-out: Ascaris suum IC50 value (A)

IC50 [2, 3] [nM] | Structure (SMILES) | Grade (EC50, concentration required for 50% inhibition of the motor ability) [1] | IC50 [2] [nM]
2 | O=C(NCCc1cc(F)c(Cl)cc1F)c1nccnc1C(F)(F)F [Compound 24] | A (The EC50 value is lower than 0.5 ppm.) | –
3.3 | CC(Cc1ccc(Cl)cc1Cl)NC(=O)c1nccnc1Cl (stereo not drawn) [Compound 14] | – | –
1.7 | O=C(NCCc1ccc(Oc2ncc(C(F)(F)F)cc2Cl)cc1Cl)c1cccnc1Cl [Compound 22] | A (The EC50 value is lower than 0.5 ppm.) | –
10 | CC(Cc1ccc(Cl)cc1F)NC(=O)c1nccnc1Cl (stereo not drawn) [Compound 23] | A (The EC50 value is lower than 0.5 ppm.) | –
– | O=C(NCCc1ccc(-c2ccc(OC(F)(F)F)cc2)cc1F)c1nccnc1Cl [Compound 17] | A (The EC50 value is lower than 0.5 ppm.) | 2
4.5 | O=C(NCCc1ccc(Oc2ccc(C(F)(F)F)cn2)cc1Cl)c1cccnc1Cl [Compound 45] | – | –
– | Cc1nccnc1C(=O)NCCc1ccc(-c2ccc(OC(F)(F)F)cc2)cc1 [Compound 48] | A (The EC50 value is lower than 0.5 ppm.) | –
18 | O=C(NCCc1cc(F)c(Cl)cc1F)c1cccnc1Cl [Compound 25] | A (The EC50 value is lower than 0.5 ppm.) | –
2.2 | O=C(NCCc1cc(F)c(F)cc1Cl)c1nccnc1C(F)(F)F [Compound 27] | – | –
– | O=C(NCCc1ccc(Cl)cc1Cl)C1=C(C(F)(F)F)OCCS1 [Compound 33] | A (The EC50 value is lower than 0.5 ppm.) | 7.3
1.3 | O=C(NCCc1cc(F)c(Cl)cc1Cl)c1nccnc1C(F)(F)F [Compound 28] | A (The EC50 value is lower than 0.5 ppm.) | –
1.1 | O=C(NCCc1ccc(Cl)cc1Cl)c1sccc1C(F)(F)F [Compound 7] | A (The EC50 value is lower than 0.5 ppm.) | –
1.6 | Cc1occc1C(=O)NCCc1ccc(Cl)cc1Cl [Compound 50] | – | –
– | O=C(NCCc1ccc(Cl)cc1Cl)c1nccnc1C(F)(F)F [Compound 9] | A (The EC50 value is lower than 0.5 ppm.) | –
1.5 | O=C(NCC1(c2ccc(Cl)cc2Cl)CC1)c1nccnc1C(F)(F)F [Compound 16] | A (The EC50 value is lower than 0.5 ppm.) | –
26 | Cc1nccnc1C(=O)NCCc1ccc(-c2ccc(OC(F)(F)F)cc2)cc1 [Compound 5] | – | –
42 | O=C(NCCc1ccc(Cl)cc1Cl)c1cnccc1C(F)(F)F [Compound 31] | – | –
– | Cc1nc(C(F)(F)F)c(C(=O)NCCc2ccc(Cl)cc2Cl)s1 [Compound 38] | B (The EC50 value is 0.5 ppm or higher but lower than 5 ppm.) | –

IC50 [2, 3] [nM] | Structure (SMILES) | Grade (EC50, concentration required for 50% inhibition of the motor ability) [1] | IC50 [2] [nM]
9.4 | O=C(NCCc1ncc(C(F)(F)F)cc1Cl)c1nccnc1C(F)(F)F [Compound 3] | A (The EC50 value is lower than 0.5 ppm.) | –
57 | Nc1nc(C(F)(F)F)c(C(=O)NCCc2ccc(Cl)cc2Cl)s1 [Compound 2] | – | –
2.9 | CC(Cc1cc(F)c(F)cc1Cl)NC(=O)c1nccnc1C(F)(F)F (stereo not drawn) [Compound 26] | – | –
47 | O=C(NCCc1ncc(C(F)(F)F)cc1Cl)c1cccnc1Cl [Compound 1] | A (The EC50 value is lower than 0.5 ppm.) | –
2.7 | O=C(NCC1(c2ccc(Cl)cc2Cl)CC1)c1nccnc1Cl [Compound 13] | A (The EC50 value is lower than 0.5 ppm.) | –
3.4 | O=C(NCCc1ccc(F)cc1Cl)c1nccnc1C(F)(F)F [Compound 11] | – | –
3.1 | O=C(NC1(Cc2ccc(Cl)cc2Cl)CC1)c1nccnc1C(F)(F)F [Compound 18] | – | –
6 | Cc1cccnc1C(=O)NCCc1ccc(Cl)cc1Cl [Compound 30] | – | –
– | CC(Cc1ccc(Cl)cc1Cl)NC(=O)c1nccnc1C(F)(F)F (stereo not drawn) [Compound 15] | A (The EC50 value is lower than 0.5 ppm.) | –
20 | C[C@@H](COc1ncc(C(F)(F)F)cc1Cl)NC(=O)c1cccnc1Cl [Compound 44] | – | –
– | Cc1c(C(=O)NCCc2ccc(Cl)cc2Cl)c(C(F)(F)F)nn1C [Compound 35] | B (The EC50 value is 0.5 ppm or higher but lower than 5 ppm.) | –
6.7 | O=C(NCCc1cc(F)c(Cl)cc1Cl)c1cccnc1Cl [Compound 29] | – | –
13 | C[C@@H](Cn1nc(Br)c(Br)c1Br)NC(=O)c1cccnc1C(F)(F)F [Compound 42] | – | –
– | CC(Cc1ccc(Cl)cc1Cl)NC(=O)c1nccnc1I (stereo not drawn) [Compound 47] | – | 2.3
1.3 | O=C(NCCc1ccc(-c2ccc(OC(F)(F)F)cc2)cc1Cl)c1nccnc1C(F)(F)F [Compound 4] | – | –
42 | C[C@@H](Cn1nc(Br)c(Br)c1Br)NC(=O)c1cccnc1Cl [Compound 41] | – | –
9.9 | C[C@@H](Cn1nc(C(F)(F)F)c(Cl)c1Cl)NC(=O)c1nccnc1C(F)(F)F [Compound 43] | – | –

Structure (SMILES) | IC50 [2, 3] [nM] | Grade (EC50, concentration required for 50% inhibition of the motor ability) [1] | IC50 [2] [nM]
O=C(NCCc1ccc(Cl)cc1Cl)c1cccnc1C(F)(F)F [Compound 6] | 4.4 | A (The EC50 value is lower than 0.5 ppm.) | –
O=C(NCCc1ccc(C(F)(F)F)cc1Cl)c1nccnc1C(F)(F)F [Compound 19] | 1.3 | A (The EC50 value is lower than 0.5 ppm.) | –
O=C(NCCc1ccc(Oc2ncc(C(F)(F)F)cc2Cl)cc1Cl)c1nccnc1C(F)(F)F [Compound 21] | 1.3 | A (The EC50 value is lower than 0.5 ppm.) | –
O=C(NCCc1ccc(Cl)cc1F)c1nccnc1C(F)(F)F [Compound 20] | 4.9 | – | –
